# Results taken from patent EP4678638A1, “NEW E3 UBIQUITIN LIGASE LIGAND, PROTEIN DEGRADATION AGENT AND USE THEREOF” (priority 2023, dated 2024).
# Like-named read-outs stand apart in the source and are kept apart here.
# How the values were obtained:
# Type in all cases: cell-based
# MCF7 = experiment: CCK-8 proliferation, MCF7 (MCF-7); conditions: Homo sapiens
# Outline: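 CCK-8 viability readout; IC50 from growth-inhibition curve fitting. Cells plated, dosed 24h later with a 10-point series, top 10µM, 5-fold steps. Culture at 37°C, 5% CO2.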
# WEE1 = target: T1, WEE1 (Homo sapiens, UniProt P30291+Q96SW2); experiment: Western blot degradation of WEE1 (hPBMC); conditions: Table D16
# T1 construct: evaluate the effects of the compounds of the present disclosure on the expression of target proteins in cells; endogenous in cells; host or cells: hPBMC
# T1 sequence (P30291 whole entry): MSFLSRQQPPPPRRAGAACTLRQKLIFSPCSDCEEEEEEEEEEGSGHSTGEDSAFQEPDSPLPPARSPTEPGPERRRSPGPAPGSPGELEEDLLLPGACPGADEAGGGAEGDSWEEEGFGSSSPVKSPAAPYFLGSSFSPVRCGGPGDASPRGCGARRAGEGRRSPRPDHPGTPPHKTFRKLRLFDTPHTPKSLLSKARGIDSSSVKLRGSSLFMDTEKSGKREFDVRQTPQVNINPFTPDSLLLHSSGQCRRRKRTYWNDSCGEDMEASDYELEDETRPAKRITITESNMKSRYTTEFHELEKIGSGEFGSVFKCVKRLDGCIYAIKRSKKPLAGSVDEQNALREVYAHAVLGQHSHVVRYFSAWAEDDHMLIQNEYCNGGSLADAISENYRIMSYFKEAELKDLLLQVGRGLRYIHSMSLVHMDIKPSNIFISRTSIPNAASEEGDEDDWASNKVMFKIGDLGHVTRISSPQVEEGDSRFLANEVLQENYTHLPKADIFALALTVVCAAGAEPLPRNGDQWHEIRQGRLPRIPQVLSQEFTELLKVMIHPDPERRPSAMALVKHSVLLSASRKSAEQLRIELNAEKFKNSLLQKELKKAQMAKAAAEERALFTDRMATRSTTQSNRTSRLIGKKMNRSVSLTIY
# T1 sequence (Q96SW2 whole entry): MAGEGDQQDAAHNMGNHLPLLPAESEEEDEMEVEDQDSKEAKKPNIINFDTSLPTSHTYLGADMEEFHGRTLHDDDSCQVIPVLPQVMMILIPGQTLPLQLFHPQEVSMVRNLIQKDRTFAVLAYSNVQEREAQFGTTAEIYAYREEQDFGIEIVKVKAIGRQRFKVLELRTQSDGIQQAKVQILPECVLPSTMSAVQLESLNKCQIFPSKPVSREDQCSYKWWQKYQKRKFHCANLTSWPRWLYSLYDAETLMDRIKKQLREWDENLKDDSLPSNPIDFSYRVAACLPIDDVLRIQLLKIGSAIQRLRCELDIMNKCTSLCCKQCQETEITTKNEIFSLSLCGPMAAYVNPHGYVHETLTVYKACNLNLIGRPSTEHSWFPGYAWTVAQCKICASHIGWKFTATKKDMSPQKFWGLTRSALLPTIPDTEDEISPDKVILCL
# T1 sequence (Q16531 whole entry partner): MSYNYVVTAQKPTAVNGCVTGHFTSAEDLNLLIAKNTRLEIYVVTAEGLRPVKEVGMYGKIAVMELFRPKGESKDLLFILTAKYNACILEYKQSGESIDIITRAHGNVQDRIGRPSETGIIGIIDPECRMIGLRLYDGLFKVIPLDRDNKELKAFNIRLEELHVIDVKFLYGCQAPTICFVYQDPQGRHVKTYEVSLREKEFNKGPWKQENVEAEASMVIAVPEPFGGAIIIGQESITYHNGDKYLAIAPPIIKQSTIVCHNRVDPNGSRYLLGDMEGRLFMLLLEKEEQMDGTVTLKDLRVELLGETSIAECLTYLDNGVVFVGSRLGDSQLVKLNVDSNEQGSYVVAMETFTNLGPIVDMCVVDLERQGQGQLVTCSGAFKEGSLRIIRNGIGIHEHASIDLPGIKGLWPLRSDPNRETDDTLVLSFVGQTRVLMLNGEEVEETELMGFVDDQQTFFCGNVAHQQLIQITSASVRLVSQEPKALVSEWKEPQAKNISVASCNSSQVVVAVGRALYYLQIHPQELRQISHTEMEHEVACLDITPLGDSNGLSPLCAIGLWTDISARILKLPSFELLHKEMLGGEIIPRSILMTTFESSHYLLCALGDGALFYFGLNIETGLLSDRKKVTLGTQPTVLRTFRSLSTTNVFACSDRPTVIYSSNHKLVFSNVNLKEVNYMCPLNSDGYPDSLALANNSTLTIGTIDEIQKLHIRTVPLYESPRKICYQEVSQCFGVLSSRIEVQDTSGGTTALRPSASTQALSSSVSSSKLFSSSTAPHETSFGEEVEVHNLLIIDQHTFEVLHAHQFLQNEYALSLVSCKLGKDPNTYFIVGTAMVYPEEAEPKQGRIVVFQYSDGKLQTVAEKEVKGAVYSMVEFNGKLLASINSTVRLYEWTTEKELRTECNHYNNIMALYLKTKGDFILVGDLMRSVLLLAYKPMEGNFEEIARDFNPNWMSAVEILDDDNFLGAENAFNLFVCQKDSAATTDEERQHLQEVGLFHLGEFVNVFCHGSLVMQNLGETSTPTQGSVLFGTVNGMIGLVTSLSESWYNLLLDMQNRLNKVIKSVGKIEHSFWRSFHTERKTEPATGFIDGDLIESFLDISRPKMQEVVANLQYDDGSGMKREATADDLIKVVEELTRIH
# Outline: (§1)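 Degradation is assessed by immunoblotting lysates of treated cells. Target bands are quantified by grayscale and normalised to an internal control, so degradation rate equals 100% minus % remaining.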
# IKZF1 = target: T2, IKZF1 (Homo sapiens, UniProt Q13422+Q96SW2); experiment: Western blot degradation of IKZF1 (hPBMC); conditions: Table D16
# T2 construct: evaluate the effects of the compounds of the present disclosure on the expression of target proteins in cells; endogenous in cells; host or cells: hPBMC
# Outline: as §1
# IKZF2 = target: T3, IKZF2 (Homo sapiens, UniProt Q96SW2+Q9UKS7); experiment: Western blot degradation of IKZF2 (hPBMC); conditions: Table D16
# T3 construct: evaluate the effects of the compounds of the present disclosure on the expression of target proteins in cells; endogenous in cells; host or cells: hPBMC
# T3 sequence (Q9UKS7 whole entry): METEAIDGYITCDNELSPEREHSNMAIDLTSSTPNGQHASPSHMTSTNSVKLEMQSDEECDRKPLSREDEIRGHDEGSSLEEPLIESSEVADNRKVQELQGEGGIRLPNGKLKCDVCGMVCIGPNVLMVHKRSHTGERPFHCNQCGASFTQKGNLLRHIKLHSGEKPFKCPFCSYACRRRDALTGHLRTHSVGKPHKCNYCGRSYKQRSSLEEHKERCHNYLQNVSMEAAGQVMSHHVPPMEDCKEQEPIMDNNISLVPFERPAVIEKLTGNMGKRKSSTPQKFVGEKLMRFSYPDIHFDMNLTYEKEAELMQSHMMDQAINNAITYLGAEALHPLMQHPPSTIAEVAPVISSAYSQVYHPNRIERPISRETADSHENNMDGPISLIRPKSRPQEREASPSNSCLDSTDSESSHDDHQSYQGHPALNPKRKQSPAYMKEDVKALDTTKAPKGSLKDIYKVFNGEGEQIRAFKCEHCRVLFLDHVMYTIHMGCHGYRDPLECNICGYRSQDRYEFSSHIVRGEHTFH
# T3 sequence (Q96SW2 whole entry): as the sequence (Q96SW2 whole entry) above
# T3 sequence (Q16531 whole entry partner): as the sequence (Q16531 whole entry partner) above
# Outline: as §1
# IKZF3 = target: T4, IKZF3 (Homo sapiens, UniProt Q96SW2+Q9UKT9); experiment: Western blot degradation of IKZF3 (hPBMC); conditions: Table D16
# T4 construct: evaluate the effects of the compounds of the present disclosure on the expression of target proteins in cells; endogenous in cells; host or cells: hPBMC
# T4 sequence (Q9UKT9 whole entry): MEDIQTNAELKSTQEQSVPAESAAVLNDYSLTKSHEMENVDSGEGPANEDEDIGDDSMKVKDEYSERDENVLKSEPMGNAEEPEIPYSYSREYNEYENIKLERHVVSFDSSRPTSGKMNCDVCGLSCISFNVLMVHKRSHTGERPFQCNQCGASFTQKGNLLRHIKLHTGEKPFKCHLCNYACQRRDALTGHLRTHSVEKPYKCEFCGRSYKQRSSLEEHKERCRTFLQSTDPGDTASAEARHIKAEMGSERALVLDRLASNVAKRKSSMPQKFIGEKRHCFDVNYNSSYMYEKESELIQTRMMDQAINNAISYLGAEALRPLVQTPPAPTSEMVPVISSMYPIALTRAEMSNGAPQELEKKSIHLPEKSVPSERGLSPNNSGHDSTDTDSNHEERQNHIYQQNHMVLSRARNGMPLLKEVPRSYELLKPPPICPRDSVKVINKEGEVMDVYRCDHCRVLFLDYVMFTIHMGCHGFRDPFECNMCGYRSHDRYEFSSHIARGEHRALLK
# T4 sequence (Q96SW2 whole entry): as the sequence (Q96SW2 whole entry) above
# T4 sequence (Q16531 whole entry partner): as the sequence (Q16531 whole entry partner) above
# Outline: as §1
# CK1a = target: T5, CK1a (Homo sapiens, UniProt P48729+Q96SW2); experiment: Western blot degradation of CK1a (hPBMC); conditions: Table D16
# T5 construct: evaluate the effects of the compounds of the present disclosure on the expression of target proteins in cells; endogenous in cells; host or cells: hPBMC
# T5 sequence (P48729 whole entry): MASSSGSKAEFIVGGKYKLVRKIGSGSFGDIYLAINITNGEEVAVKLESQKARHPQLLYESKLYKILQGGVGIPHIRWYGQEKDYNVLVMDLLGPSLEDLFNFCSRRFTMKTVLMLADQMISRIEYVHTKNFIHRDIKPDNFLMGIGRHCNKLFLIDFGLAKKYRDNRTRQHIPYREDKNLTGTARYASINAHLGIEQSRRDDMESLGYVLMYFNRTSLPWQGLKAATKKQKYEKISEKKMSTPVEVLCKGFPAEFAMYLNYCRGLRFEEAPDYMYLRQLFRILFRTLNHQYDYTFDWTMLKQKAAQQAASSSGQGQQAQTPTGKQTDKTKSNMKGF
# T5 sequence (Q96SW2 whole entry): as the sequence (Q96SW2 whole entry) above
# T5 sequence (Q16531 whole entry partner): as the sequence (Q16531 whole entry partner) above
# Outline: as §1
# GSPT1 = target: T6, GSPT1 (Homo sapiens, UniProt P15170+Q96SW2); experiment: Western blot degradation of GSPT1 (hPBMC); conditions: Table D16
# T6 construct: evaluate the effects of the compounds of the present disclosure on the expression of target proteins in cells; endogenous in cells; host or cells: hPBMC
# T6 sequence (P15170 whole entry): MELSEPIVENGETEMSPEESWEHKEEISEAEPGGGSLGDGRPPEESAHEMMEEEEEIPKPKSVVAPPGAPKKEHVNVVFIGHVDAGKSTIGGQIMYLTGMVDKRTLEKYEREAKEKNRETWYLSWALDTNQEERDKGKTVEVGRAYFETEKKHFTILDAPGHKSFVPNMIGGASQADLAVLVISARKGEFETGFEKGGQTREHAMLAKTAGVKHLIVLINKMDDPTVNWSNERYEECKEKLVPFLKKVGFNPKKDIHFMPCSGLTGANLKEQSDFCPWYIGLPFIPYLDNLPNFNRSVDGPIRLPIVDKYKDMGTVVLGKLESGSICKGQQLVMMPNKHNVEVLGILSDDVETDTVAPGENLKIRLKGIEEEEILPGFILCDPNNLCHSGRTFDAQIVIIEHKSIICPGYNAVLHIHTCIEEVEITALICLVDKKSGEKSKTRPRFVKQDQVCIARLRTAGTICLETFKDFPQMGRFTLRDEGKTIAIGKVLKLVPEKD
# T6 sequence (Q96SW2 whole entry): as the sequence (Q96SW2 whole entry) above
# T6 sequence (Q16531 whole entry partner): as the sequence (Q16531 whole entry partner) above
# Outline: as §1
# [1] = MCF7, CCK-8, read-out: Inhibitory activity (IC50) on tumor cell proliferation, MCF-7
smiles,measurement,setting,value
"O=C1CCC(Nc2ncncc2CO)C(=O)N1 (stereo not drawn) [GT-07727, 3-((5-(Hydroxymethyl)pyrimidin-4-yl)amino)piperidine-2,6-dione]",IC50,MCF7; [1],1 to 5 µM
same,Degradation of substrate protein WEE1 (substrate protein remaining %),WEE1,A (A is defined as 0% ≤ substrate protein remaining % ≤ 80%)
same,Degradation of substrate protein IKZF1 (substrate protein remaining %),IKZF1,A (A is defined as 0% ≤ substrate protein remaining % ≤ 80%)
same,Degradation of substrate protein IKZF2 (substrate protein remaining %),IKZF2,A (A is defined as 0% ≤ substrate protein remaining % ≤ 80%)
same,Degradation of substrate protein IKZF3 (substrate protein remaining %),IKZF3,A (A is defined as 0% ≤ substrate protein remaining % ≤ 80%)
same,Degradation of substrate protein CKla (substrate protein remaining %),CK1a,B (B is defined as substrate protein remaining % > 80%)
same,Degradation of substrate protein GSPT1 (substrate protein remaining %),GSPT1,B (B is defined as substrate protein remaining % > 80%)
"O=C1CCC(Nc2cc(CO)ccn2)C(=O)N1 (stereo not drawn) [GT-07366, 3-((4-(Hydroxymethyl)pyridin-2-yl)amino)piperidine-2,6-dione]",IC50,MCF7; [1],1 to 5 µM
same,Degradation of substrate protein WEE1 (substrate protein remaining %),WEE1,B (B is defined as substrate protein remaining % > 80%)
same,Degradation of substrate protein IKZF1 (substrate protein remaining %),IKZF1,B (B is defined as substrate protein remaining % > 80%)
same,Degradation of substrate protein IKZF2 (substrate protein remaining %),IKZF2,B (B is defined as substrate protein remaining % > 80%)
same,Degradation of substrate protein IKZF3 (substrate protein remaining %),IKZF3,B (B is defined as substrate protein remaining % > 80%)
same,Degradation of substrate protein CKla (substrate protein remaining %),CK1a,A (A is defined as 0% ≤ substrate protein remaining % ≤ 80%)
same,Degradation of substrate protein GSPT1 (substrate protein remaining %),GSPT1,A (A is defined as 0% ≤ substrate protein remaining % ≤ 80%)
"O=C1CCC(Nc2cc(CO)c(F)cn2)C(=O)N1 (stereo not drawn) [GT-07725, 3-((5-fluoro-4-(hydroxymethyl)pyridin-2-yl)amino)piperidine-2,6-dione]",IC50,MCF7; [1],1 to 5 µM
same,Degradation of substrate protein WEE1 (substrate protein remaining %),WEE1,A (A is defined as 0% ≤ substrate protein remaining % ≤ 80%)
same,Degradation of substrate protein IKZF1 (substrate protein remaining %),IKZF1,A (A is defined as 0% ≤ substrate protein remaining % ≤ 80%)
same,Degradation of substrate protein IKZF2 (substrate protein remaining %),IKZF2,A (A is defined as 0% ≤ substrate protein remaining % ≤ 80%)
same,Degradation of substrate protein IKZF3 (substrate protein remaining %),IKZF3,A (A is defined as 0% ≤ substrate protein remaining % ≤ 80%)
same,Degradation of substrate protein CKla (substrate protein remaining %),CK1a,B (B is defined as substrate protein remaining % > 80%)
same,Degradation of substrate protein GSPT1 (substrate protein remaining %),GSPT1,A (A is defined as 0% ≤ substrate protein remaining % ≤ 80%)
"O=Cc1cncc(NC2CCC(=O)NC2=O)c1 (stereo not drawn) [GT-07554, 5-((2,6-Dioxopiperidin-3-yl)amino)nicotinaldehyde]",IC50,MCF7; [1],1 to 5 µM
same,Degradation of substrate protein WEE1 (substrate protein remaining %),WEE1,A (A is defined as 0% ≤ substrate protein remaining % ≤ 80%)
same,Degradation of substrate protein IKZF1 (substrate protein remaining %),IKZF1,A (A is defined as 0% ≤ substrate protein remaining % ≤ 80%)
same,Degradation of substrate protein IKZF2 (substrate protein remaining %),IKZF2,A (A is defined as 0% ≤ substrate protein remaining % ≤ 80%)
same,Degradation of substrate protein IKZF3 (substrate protein remaining %),IKZF3,A (A is defined as 0% ≤ substrate protein remaining % ≤ 80%)
same,Degradation of substrate protein CKla (substrate protein remaining %),CK1a,A (A is defined as 0% ≤ substrate protein remaining % ≤ 80%)
same,Degradation of substrate protein GSPT1 (substrate protein remaining %),GSPT1,B (B is defined as substrate protein remaining % > 80%)
"O=C1CCC(Nc2ccc(CO)cn2)C(=O)N1 (stereo not drawn) [GT-07551, 3-((5-(Hydroxymethyl)pyridin-2-yl)amino)piperidine-2,6-dione]",IC50,MCF7; [1],1 to 5 µM
same,Degradation of substrate protein WEE1 (substrate protein remaining %),WEE1,A (A is defined as 0% ≤ substrate protein remaining % ≤ 80%)
same,Degradation of substrate protein IKZF1 (substrate protein remaining %),IKZF1,B (B is defined as substrate protein remaining % > 80%)
same,Degradation of substrate protein IKZF2 (substrate protein remaining %),IKZF2,A (A is defined as 0% ≤ substrate protein remaining % ≤ 80%)
same,Degradation of substrate protein IKZF3 (substrate protein remaining %),IKZF3,B (B is defined as substrate protein remaining % > 80%)
same,Degradation of substrate protein CKla (substrate protein remaining %),CK1a,B (B is defined as substrate protein remaining % > 80%)
same,Degradation of substrate protein GSPT1 (substrate protein remaining %),GSPT1,B (B is defined as substrate protein remaining % > 80%)
"O=Cc1cccnc1NC1CCC(=O)NC1=O (stereo not drawn) [GT-07447, 2-((2,6-Dioxopiperidin-3-yl)amino)nicotinaldehyde]",IC50,MCF7; [1],1 to 5 µM
same,Degradation of substrate protein WEE1 (substrate protein remaining %),WEE1,A (A is defined as 0% ≤ substrate protein remaining % ≤ 80%)
same,Degradation of substrate protein IKZF1 (substrate protein remaining %),IKZF1,A (A is defined as 0% ≤ substrate protein remaining % ≤ 80%)
same,Degradation of substrate protein IKZF2 (substrate protein remaining %),IKZF2,A (A is defined as 0% ≤ substrate protein remaining % ≤ 80%)
same,Degradation of substrate protein IKZF3 (substrate protein remaining %),IKZF3,A (A is defined as 0% ≤ substrate protein remaining % ≤ 80%)
same,Degradation of substrate protein CKla (substrate protein remaining %),CK1a,A (A is defined as 0% ≤ substrate protein remaining % ≤ 80%)
same,Degradation of substrate protein GSPT1 (substrate protein remaining %),GSPT1,A (A is defined as 0% ≤ substrate protein remaining % ≤ 80%)
"CC(C)(C)[Si](C)(C)OCc1ccc(NC2CCC(=O)NC2=O)nn1 (stereo not drawn) [GT-07726, 3-((6-(((tert-Butyldimethylsilyl)oxy)methyl)pyridazin-3-yl)amino)piperidine-2,6-dione]",IC50,"MCF7; MCF7, read-out: Inhibitory activity (IC50) on tumor cell proliferation, MCF-7",1 to 5 µM
same,Degradation of substrate protein WEE1 (substrate protein remaining %),WEE1,A (A is defined as 0% ≤ substrate protein remaining % ≤ 80%)
same,Degradation of substrate protein IKZF1 (substrate protein remaining %),IKZF1,A (A is defined as 0% ≤ substrate protein remaining % ≤ 80%)
same,Degradation of substrate protein IKZF2 (substrate protein remaining %),IKZF2,A (A is defined as 0% ≤ substrate protein remaining % ≤ 80%)
same,Degradation of substrate protein IKZF3 (substrate protein remaining %),IKZF3,A (A is defined as 0% ≤ substrate protein remaining % ≤ 80%)
same,Degradation of substrate protein CKla (substrate protein remaining %),CK1a,B (B is defined as substrate protein remaining % > 80%)
same,Degradation of substrate protein GSPT1 (substrate protein remaining %),GSPT1,B (B is defined as substrate protein remaining % > 80%)
"O=C1CCN(c2cnc(CO)c(F)c2)C(=O)N1 [GT-07555, 1-(5-Fluoro-6-(hydroxymethyl)pyridin-3-yl)dihydropyrimidine-2,4(1H,3H)-dione]",IC50,MCF7; [1],1 to 5 µM
same,Degradation of substrate protein WEE1 (substrate protein remaining %),WEE1,A (A is defined as 0% ≤ substrate protein remaining % ≤ 80%)
same,Degradation of substrate protein IKZF1 (substrate protein remaining %),IKZF1,A (A is defined as 0% ≤ substrate protein remaining % ≤ 80%)
same,Degradation of substrate protein IKZF2 (substrate protein remaining %),IKZF2,A (A is defined as 0% ≤ substrate protein remaining % ≤ 80%)
same,Degradation of substrate protein IKZF3 (substrate protein remaining %),IKZF3,A (A is defined as 0% ≤ substrate protein remaining % ≤ 80%)
same,Degradation of substrate protein CKla (substrate protein remaining %),CK1a,A (A is defined as 0% ≤ substrate protein remaining % ≤ 80%)
same,Degradation of substrate protein GSPT1 (substrate protein remaining %),GSPT1,A (A is defined as 0% ≤ substrate protein remaining % ≤ 80%)
"O=C1CCC(Nc2ccc(CO)nc2)C(=O)N1 (stereo not drawn) [GT-07446, 3-((6-(Hydroxymethyl)pyridin-3-yl)amino)piperidine-2,6-dione]",IC50,MCF7; [1],1 to 5 µM
same,Degradation of substrate protein WEE1 (substrate protein remaining %),WEE1,A (A is defined as 0% ≤ substrate protein remaining % ≤ 80%)
same,Degradation of substrate protein IKZF1 (substrate protein remaining %),IKZF1,A (A is defined as 0% ≤ substrate protein remaining % ≤ 80%)
same,Degradation of substrate protein IKZF2 (substrate protein remaining %),IKZF2,A (A is defined as 0% ≤ substrate protein remaining % ≤ 80%)
same,Degradation of substrate protein IKZF3 (substrate protein remaining %),IKZF3,A (A is defined as 0% ≤ substrate protein remaining % ≤ 80%)
same,Degradation of substrate protein CKla (substrate protein remaining %),CK1a,A (A is defined as 0% ≤ substrate protein remaining % ≤ 80%)
same,Degradation of substrate protein GSPT1 (substrate protein remaining %),GSPT1,A (A is defined as 0% ≤ substrate protein remaining % ≤ 80%)
